US20040052879A1, “Method for the extraction of pharmaceutically active products from spermatophyte plants, products thus obtained and their use in the medical field, in particular as substances with anti-tumoral activity” (priority 2000, published 2004)
In brackets after ≈: the same amount, converted by molar mass.

Tests used:
[1] = tested on: HT-29 cells (colorectal adenocarcinoma); experiment: Cellular cycle analysis of HT-29 cells by flow cytometry; type: cell-based; details: only after 48 h incubation
Method: The cells have been resuspended in a concentration of 1×10^6/ml and incubated for different periods of time and with various doses of each substance. At the end of the incubation period the cells have been fixed in acetone/methanol 1:4, treated with 100 KU/ml of RNase and marked with propydium iodide (50 mcg/ml). The various stages of the cellular cycle have then been analyzed by means of flow cytometry with a cytometer FACscan using a suitable statistic program. For these cells the effects on the cellular cycle (FIG. 12) are evident only after 48 h of incubation starting from a dose of 10 mcg/ml and consist in a block of the cellular cycle on G1-S/G2M level.

[2] = tested on: M14 cells (malignant melanoma); experiment: Cellular cycle analysis of M14 cells by flow cytometry; type: cell-based; details: for induction of cell accumulation in stage G1/S: 72 h, lowest dose (2.5 mcg/ml)
Method: The cells have been resuspended in a concentration of 1×10^6/ml and incubated for different periods of time and with various doses of each substance. At the end of the incubation period the cells have been fixed in acetone/methanol 1:4, treated with 100 KU/ml of RNase and marked with propydium iodide (50 mcg/ml). The various stages of the cellular cycle have then been analyzed by means of flow cytometry with a cytometer FACscan using a suitable statistic program. […] Indeed, after only 24 h of cell incubation with C-Res and starting from a dose of 1.25 mcg/ml, a significant block of the cellular cycle on S/G2M level can be observed, with the consequent increase of the percentage of cells in S stage. Said block remains, at higher doses, constant for the following hours.

[3] = tested on: PAR-MEL cells (malignant melanoma resisting to chemotherapeutic treatments); experiment: Cellular cycle analysis of PAR-MEL cells by flow cytometry; type: cell-based; details: after 24 h incubation
Method: The cells have been resuspended in a concentration of 1×10^6/ml and incubated for different periods of time and with various doses of each substance. At the end of the incubation period the cells have been fixed in acetone/methanol 1:4, treated with 100 KU/ml of RNase and marked with propydium iodide (50 mcg/ml). The various stages of the cellular cycle have then been analyzed by means of flow cytometry with a cytometer FACscan using a suitable statistic program. As far as the effects on the cellular cycle (FIG. 8) are concerned, after only 24 h of incubation of PAR-MEL cells with C-Res and starting from a dose of 5 mcg/ml, a significant block of the cellular cycle on G1-S/G2M level can be observed, with a consequent increase in the percentage of cells in S stage and at higher doses in G1 stage. Said block remains constant for the following hours.

[4] = tested on: HT-29 cells (colorectal adenocarcinoma); experiment: Cell growth of HT-29 cells; type: cell-based; details: until 72 hours
Method: (§1) During the experiments a series of cell lines originating from different types of tumors has been used. All cell lines have been grown and kept in a RPMI-1640 medium added with 10% fetal calf serum (FCS) and 1% penicillin-streptomycin. The substances according to the invention have been dissolved in dimethyl-sulfoxide (DMSO) at an initial concentration of 100 mM and added to the cell cultures in the concentrations indicated. DMSO alone has been added to control cultures. The cells placed on a microplate in a concentration of 1×10^5/ml have been incubated with various doses of each substance and for different periods of time. At the end of the treatment cell replication has been evaluated by a cellular count carried out using a Coulter Counter.

[5] = tested on: PAR-MEL cells (malignant melanoma resisting to chemotherapeutic treatments); experiment: Apoptosis of PAR-MEL cells by flow cytofluorometry (PI DNA content); type: cell-based; details: 40 mcg/ml, 72 h incubation
Method: (§2) The cells have been resuspended in a concentration of 1×10^6/ml and incubated for different periods of time and with various doses of each substance. At the end of the incubation period the cells have been fixed in acetone/methanol 1:4, treated with 100 KU/ml of RNase and marked with propydium iodide (50 mcg/ml). The cells have then been analyzed by means of flow cytofluorometry using a cytometer FACscan.

[6] = tested on: M14 cells (malignant melanoma); experiment: Cell replication of M14 cells (Coulter Counter count); type: cell-based; details: for IC50: Homo sapiens, 72 h incubation, read-out: concentration inhibiting 50% of cell replication (CI50)
Method: as §1, with “Counter. Cells belonging to the M14 tumor line (malignant melanoma) have been incubated for various periods of time with 1.25, 2.5, 5, 10, 20, 40 and 80 mcg/ml of cis-resveratrol (C-Res), or DMSO alone as far as controls are concerned.” for “Counter.”

[7] = Stability of the active agent in culture medium (HPLC/GC quantification); type: physicochemical; details: for halving time in culture medium: culture medium of ex. 10 (RPMI-1640, 10% FCS); for amount still present at the end of the test: culture medium of ex. 10, 72 h
Method: As far as resveratrols are concerned, they can be obtained with two alternative techniques, HPLC or GC. For both techniques quantification is carried out with the internal standard method. The compound we have found to be optimal is trans4-hydroxy-stilbene, commercially available.
For HPLC the reference method with reverse-phase column can be applied, with detection at 310 nm for trans isomers and at 282 for cis isomer (Mattivi F. Solid phase extraction of trans-resveratrol from wines for HPLC analysis. Zeftschrift für Lebensmittel-Untersuchung und Forschung, 1993, 196, 522-525). The instrumental conditions are the same as those described above for viniferine. The coefficient of molar extinction of both glucosides is almost the same as the one of the corresponding aglycones, so that they can be determined as such after carrying out a correction for molecular weights (Mattivi et al. Isolation, characterization, and evolution in red wine vinification of resveratrol monomers, J. Agric. Food Chem., 1995, 43, 7, 1820-1823).
If a preparation for aqueous or hydroalcoholic matrixes is necessary, the injection should be preceded by a pre-purification step on reverse-phase cartridges according to Mattivi F. Solid phase extraction of trans-resveratrol from wines for HPLC analysis. Zeitschrift für Lebensmittel-Untersuchung und Forschung, 1993, 196, 522-525. In addition to what is contained in the aforesaid document, it has been verified that the method is suitable for all monomer stilbenes, both free and glucosides, and that the eluted fraction of ethyl acetate can be dried under a mild flow of nitrogen, in case it is necessary to carry out the exchange in another solvent and/or to further reduce the limits of quantification.
Said techniques can be used for instance to control the stability of the active agent in culture mediums, and therefore to support in vitro experimental models which are going to be described in the following examples. For instance, for the culture means described in ex.
During the experiments a series of cell lines originating from different types of tumors has been used. All cell lines have been grown and kept in a RPMI-1640 medium added with 10% fetal calf serum (FCS) and 1% penicillin-streptomycin.

[8] = tested on: HT-29 cells (colorectal adenocarcinoma); experiment: Cell mortality of HT-29 cells; type: cell-based; details: all doses (5-40 mcg/ml)
Method: (§3) The cells placed on a microplate in a concentration of 1×10^5/ml have been incubated with various doses of each substance and for different periods of time. At the end of the treatment cell mortality has been evaluated by a cellular count in trypan blue and/or by flow cytometry using a cytometer FACscan (Becton-Dickinson), determining the vitality of unfixed cells which have been marked with propydium iodide (PI). […] For all doses the peak of activity is detected after 48 hours of incubation.

[9] = tested on: PAR-MEL cells (malignant melanoma resisting to chemotherapeutic treatments); experiment: Cell replication of PAR-MEL cells; type: cell-based
Method: as §1

[10] = tested on: PAR-MEL cells (malignant melanoma resisting to chemotherapeutic treatments); experiment: Cell mortality of PAR-MEL cells; type: cell-based; details: 40 mcg/ml
Method: as §3, with “Only for” for “For all doses”, “dose” for “peak”, “40 mcg/ml the plateau” for “activity”, “reached” for “detected”, “only 24 h” for “48 hours”

[11] = tested on: M14 cells (malignant melanoma); experiment: Apoptosis of M14 cells by flow cytofluorometry (PI DNA content); type: cell-based
Method: The cells have been resuspended in a concentration of 1×10^6/ml and incubated for different periods of time and with various doses of each substance. At the end of the incubation period the cells have been fixed in acetone/methanol 1:4, treated with 100 KU/ml of RNase and marked with propydium iodide (50 mcg/ml). The cells have then been analyzed by means of flow cytofluorometry using a cytometer FACscan. […] Said effect is indeed particularly significant starting from a dose of 20 mcg/ml and the peak of activity can be observed after 48 h. An activity having a similar course is performed by C-Res on cell mortality (FIG. 3), even though for said parameter the percentages of cells reacting to the action of the drug are extremely higher.

[12] = tested on: HT-29 cells (colorectal adenocarcinoma); experiment: Apoptosis of HT-29 cells by flow cytofluorometry (PI DNA content); type: cell-based; details: 5 mcg/ml, all times of incubation (24, 48, 72 h)
Method: as §2, with “FACscan. […] For all other doses an increase of the effect related to the time of incubation can be observed.” for “FACscan.”

Oc1ccc(/C=C\c2cc(O)cc(O)c2)cc1 [C-Res, cis-resveratrol]
dose from which block of the cellular cycle on G1-S/G2M level is evident [1]: ≥ 10 µg/mL
induction of cell accumulation in stage G1/S [2]: could induce cell accumulation in stage G1/S
dose from which significant block of the cellular cycle on S/G2M level is observed ([2]; after 24 h incubation): ≥ 1.25 µg/mL
dose from which significant block of the cellular cycle on G1-S/G2M level is observed [3]: ≥ 5 µg/mL
inhibition of tumor growth ([4]; 5 and 10 mcg/ml): does not induce any significant effect
inhibition of tumor growth ([4]; 20 mcg/ml): partial
inhibition of tumor growth ([4]; 40 mcg/ml): complete
cells in apoptosis [5]: 50%
IC50 [6]: 2.7 µg/mL (≈ 11.8 µM)
effect on cell growth ([6]; all tested doses (1.25-80 mcg/ml)): can inhibit cell growth
effect on cell replication ([6]; dose 40 mcg/ml): cytotoxic activity
effect on cell replication ([6]; dose range 5-20 mcg/ml): significant cytostatic activity
halving time in culture medium [7]: 38 h
amount still present at the end of the test [7]: about 25%
time of peak of activity on cell mortality [8]: 48 h
effect on cell replication ([9]; dose 20 and 40 mcg/ml): cytotoxic activity
effect on cell replication ([9]; dose range 5 and 10 mcg/ml): significant cytostatic activity
time at which plateau of cell mortality is reached [10]: 24 h
dose from which increase in apoptotic cells is particularly significant [11]: ≥ 20 µg/mL
time of peak of apoptotic activity [11]: 48 h
apoptosis (peaks of hypodiploidy) [12]: absence of measurable peaks of hypodiploidy

Oc1ccc(/C=C/c2cc(O)cc(O)c2)cc1 [T-Res, trans-resveratrol, reference compound]
induction of cell accumulation in stage G1/S [2]: not
IC50 [6]: 31.6 µg/mL (≈ 138 µM)
halving time in culture medium [7]: 28 h
amount still present at the end of the test [7]: not present as such
